{
  "source": "patent US7781641B2",
  "about": "“Absorbent article” (Kao Corporation, priority 2003, dated 2010)",
  "experiment": "Method of measuring viscosity (tuning fork type vibration mode viscometer)",
  "format": "physicochemical",
  "description": "Measurement is conducted using a tuning fork type vibration mode viscometer (VIBRO NISCOMETERCJV5000 (manufactured by A&D Company Limited) is typically used in this embodiment). An oily skin care agent heated previously at about 100° C. is gradually cooled to room temperature, and viscosity at the predetermined temperature is measured.\n“Viscosity of a diamide derivative” in the present invention was measured by the same measuring method as used for the viscosity of an oily skin care agent in the above mentioned first embodiment.",
  "data": [
    {"smiles": "CCCCCCCCCCCCCCCCOCC(O)CN(CCO)C(=O)CCCCCCCCCCCCCCC", "note": "(stereo not shown) [Monoamide of the formula (III)]", "values": [
      {"measurement": "viscosity at 36° C.", "result": 1000, "unit": "mPa·s"}
    ]}
  ]
}
